Laboratory results as given in paper PMC7751820, “Synthesis, cytotoxic assessment, and molecular docking studies of 2,6-diaryl-substituted pyridine and 3,4- dihydropyrimidine-2(1H)-one scaffolds” (Turkish Journal of Chemistry, 2020).
In brackets after ≈: the same amount, converted by molar mass. Read-outs that look alike come from different tables or passages of the source.

Columns and labels:
[1] = test system: MCF-7 cell line (human breast adenocarcinoma); assay: MTT cytotoxicity assay, MCF-7 cells; assay type: cell-based; conditions: for IC50: Homo sapiens, read-out: IC 50 (μg/mL) MCF-7; for IC50 / IC 50 (μg/mL) MCF-7: MTT; for effect on cell viability in MCF-7 cells: different concentrations, Figure 6, 24 h
Description: (§1) FBS, PBS, trypsin, penicillin, streptomycin, DMSO, 3-[4,5-dimethyl thiazol-2-yl]-2,5-diphenyltetrazoliumbromide (MTT), Triton X-100, and RPMI-1640 medium supplemented with 10% heat inactivated FBS were purchased from Sigma-Aldrich. The AGS, HEK293, and MCF7 cell lines were purchased from the National Cell Bank of Iran, Pasteur Institute of Iran, Tehran, Iran.
(§2) In this research, the effects of synthesized compounds on the viability of MCF-7, AGS, and HEK cells were evaluated at various concentrations (0.39–200 μg/mL) utilizing 3-(4,5-dimethylthiazol-2-yl)-2,5-diphenyltetrazolium bromide (MTT) assay. After thawing, the cells were cultured in RPMI 1640 medium containing 10% FBS, penicillin (100 U/mL), and streptomycin ([…]) at 37 °C in a humidified 5% CO2 incubator. The cells were seeded in a 96-well plate at a density of 5000 cells per well (the cells were stained with trypan blue and counted with a hemocytometer). The cells were incubated overnight at 37 °C before cell viability testing. A stock suspension of each of the synthesized compounds at 50 mg/mL in distilled water was prepared. After that, fresh suspensions of different concentrations of the synthesized compounds (2-fold serial dilutions from 0.39 to 200 μg/mL) were made using serial dilutions of the stock suspensions of the synthesized compounds in the RPMI 1640 medium immediately before use. Next, 200 μL of suspension (different concentrations of synthesized compounds) was added to each well of the micropentaplicates. The cells were incubated for 24 and 48 h under the same conditions. Wells without any synthesized compounds served as a negative control. The experiments were performed in pentaplicate for each concentration. To assess cell survival, 100 μL of MTT solution (2 mg/mL in PBS) was added to each well and incubated for 3 h at 37 °C to produce insoluble formazan. Next, 100 μL of DMSO was added to dissolve the formazan crystals, and the absorbance was measured using an Infinite M200 ELISA plate reader (Tecan, Männedorf, Switzerland) at 570 nm, with 630 nm as a reference wave length. The percentage of cell viability was calculated via the formula (A test /A control ) ×100, in which A test is the average absorbance of the treated cells and A control is the average absorbance of the negative control.
(§3) Cytotoxicity assessment of the cell lines were performed in pentaplicate, and the results were computed as mean ±SD. The experimental results were analyzed using one-way ANOVA analysis in SPSS 16.0 for Windows (SPSS Inc., Chicago, IL, USA) and P <0.05 was considered significant. The IC 50 values were calculated by nonlinear regression analysis using Finney probit analysis in SPSS.

[2] = test system: HEK293 cells (human embryonic kidney); assay: MTT cytotoxicity assay, HEK293 normal cells; assay type: cell-based; conditions: for IC50: Homo sapiens, read-out: IC 50 (μg/mL) HEK293; for cytotoxicity against HEK293 cells compared to the other analogs: pyridine derivatives, Figure 6, 24 h
Description: as §1, §2, §3

[3] = test system: AGS cells (gastric adenocarcinoma); assay: MTT cytotoxicity assay, AGS cells; assay type: cell-based, human; conditions: for IC50: Homo sapiens, AGS cells, MTT
Description: as §1
In this research, the effects of synthesized compounds on the viability of MCF-7, AGS, and HEK cells were evaluated at various concentrations (0.39–200 μg/mL) utilizing 3-(4,5-dimethylthiazol-2-yl)-2,5-diphenyltetrazolium bromide (MTT) assay. After thawing, the cells were cultured in RPMI 1640 medium containing 10% FBS, penicillin (100 U/mL), and streptomycin ([…]) at 37 °C in a humidified 5% CO2 incubator. The cells were seeded in a 96-well plate at a density of 5000 cells per well (the cells were stained with trypan blue and counted with a hemocytometer). The cells were incubated overnight at 37 °C before cell viability testing. A stock suspension of each of the synthesized compounds at 50 mg/mL in distilled water was prepared. […] Next, 100 μL of DMSO was added to dissolve the formazan crystals, and the absorbance was measured using an Infinite M200 ELISA plate reader (Tecan, Männedorf, Switzerland) at 570 nm, with 630 nm as a reference wave length. The percentage of cell viability was calculated via the formula (A test /A control ) ×100, in which A test is the average absorbance of the treated cells and A control is the average absorbance of the negative control.
as §3

[4] = MCF7, 24 h, MCF-7 cells, Table 7, 24 h per Figure 6
[5] = HEK293 cells, MTT, Table 7, 24 h per Figure 6
[6] = MCF-7 cells, Table 7, 24 h per Figure 6

melting point | SMILES | IC50 [1, 4] | effect on cell viability in MCF-7 cells [1] | IC50 [2, 5] | cytotoxicity against HEK293 cells compared to the other analogs [2] | IC 50 (μg/mL) MCF-7 [1, 6] | also measured
 | N#Cc1c(-c2ccccc2F)cc(-c2ccccc2)nc1N [5g] | 71.9 µg/mL (≈ 249 µM) | considerable decrease in cell viability | 950 µg/mL (≈ 3280 µM) | less cytotoxic |  | 
168 to 170 °C | N#Cc1c(-c2cccc(Cl)c2)cc(-c2ccccc2)nc1N [5c, 2-Amino-4-(3-chlorophenyl)-6-phenylnicotinonitrile] | 307 µg/mL (≈ 1000 µM) |  | > 1000 µg/mL |  |  | 
 | CCOC(=O)C1=C(C)NC(=O)NC1c1cccs1 (stereo not drawn) [4m] |  |  |  |  | 128.00 µg/mL (≈ 481 µM) | IC 50 (μg/mL) HEK293 [2, 5]: 146.25 µg/mL (≈ 549 µM)
174 to 176 °C | N#Cc1c(-c2c(Cl)cccc2Cl)cc(-c2ccccc2)nc1N [5l, 2-Amino-4-(2,6-dichlorophenyl)-6-phenylnicotinonitrile] |  |  |  |  |  | 
179 to 181 °C | N#Cc1c(-c2ccc(Cl)cc2Cl)cc(-c2ccccc2)nc1N [5m, 2-Amino-4-(2,4-dichlorophenyl)-6-phenylnicotinonitrile] | 82 µg/mL (≈ 241 µM) | considerable decrease in cell viability | 259 µg/mL (≈ 760 µM) | less cytotoxic | 82.90 µg/mL (≈ 244 µM) | 
 | CCOC(=O)C1=C(C)NC(=O)NC1c1c(Cl)cccc1Cl (stereo not drawn) [4r] |  |  |  |  |  | IC50 ([3]; 24 h, read-out: IC 50 (μg/mL) AGS (24 h)): 30 µg/mL (≈ 91.1 µM); IC50 ([3]; 48 h, read-out: IC 50 (μg/mL) AGS (48 h)): 4.97 µg/mL (≈ 15.1 µM); death of AGS cells ([3]; after treatment for 24 and 48 h, different concentrations (Figure 5)): ≥ 50%; IC50 ([1]; MCF7, MCF-7 cells, Table 6 (DHPMs 4j, 4r)): 0.17 µg/mL (≈ 0.516 µM); IC50 ([2]; HEK293): > 200 µg/mL
